Results as given in patent publication US20100075957A1, “AMINODIHYDROTHIAZINE DERIVATIVES SUBSTITUTED WITH A CYCLIC GROUP” (SHIONOGI & CO., LTD., priority 2007, published 2010).

biological target: T1, Recombinant human BACE-1 (Homo sapiens, UniProt P56817); assay: Assay of β-secretase-inhibiting activity; format: biochemical; conditions: Recombinant human BACE-1 7.4 nM, substrate peptide 18 nM, pH 5.0, 30° C., 3 hours; Table 139; read-out: IC50;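 further: substrate is a peptide carrying biotin and europium cryptate, after the enzyme reaction, Streptavidin-XL665 is added and incubated 1 h at 30 °C before fluorescence reading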
T1 construct: purchased R&D Systems
T1 sequence (P56817 46-501): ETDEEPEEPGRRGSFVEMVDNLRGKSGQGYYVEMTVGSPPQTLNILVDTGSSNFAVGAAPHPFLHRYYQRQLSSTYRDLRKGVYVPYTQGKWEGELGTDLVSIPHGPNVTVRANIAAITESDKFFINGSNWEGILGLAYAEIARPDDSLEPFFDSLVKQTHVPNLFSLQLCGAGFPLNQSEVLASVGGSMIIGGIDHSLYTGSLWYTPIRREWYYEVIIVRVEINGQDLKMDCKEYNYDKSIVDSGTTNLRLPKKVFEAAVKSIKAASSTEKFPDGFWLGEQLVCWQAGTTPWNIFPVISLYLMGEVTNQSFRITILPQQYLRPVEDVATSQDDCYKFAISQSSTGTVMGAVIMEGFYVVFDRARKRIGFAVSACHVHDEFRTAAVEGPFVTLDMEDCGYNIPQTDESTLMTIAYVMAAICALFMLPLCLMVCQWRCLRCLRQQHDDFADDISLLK

SMILES | IC50
Cc1cc(C(=O)Nc2cccc([C@]3(C)CCSC(N)=N3)c2)c(C)o1 [Compound 3] | 80 nM
Cc1cc(C(=O)Nc2cccc([C@]3(C)CCSC(N)=N3)c2)c(C)s1 [Compound 11] | 170 nM
Cc1nc(C)c(C(=O)Nc2ccc(F)c([C@]3(C)CCSC(N)=N3)c2)s1 [Compound 12] | 160 nM
C/C=C/COc1ccc(C(=O)Nc2cccc([C@]3(C)CCSC(N)=N3)c2)nc1 [Compound 34] | 100 nM
CSc1ccc(C(=O)Nc2ccc(F)c([C@]3(C)CCSC(N)=N3)c2)s1 [Compound 38] | 140 nM
C[C@@]1(c2cc(NC(=O)c3ccc(Br)s3)ccc2F)CCSC(N)=N1 [Compound 41] | 150 nM
CC#CC(=O)Nc1cccc([C@]2(C)CCSC(N)=N2)c1 [Compound 65] | 720 nM
COCCOc1ccc(C(=O)Nc2ccc(F)c([C@]3(C)CCSC(N)=N3)c2)nc1 [Compound 93] | 80 nM

The remaining lines, values ahead:

IC50 | SMILES
170 nM | COCCOc1cnc(C(=O)Nc2cccc(C3(C)CCSC(N)=N3)c2)cn1 (centres unmarked) [Compound 62]
150 nM | C=Cc1cnc(C(=O)Nc2cccc([C@]3(C)CCSC(N)=N3)c2)cn1 [Compound 66]
90 nM | COCCOc1cnc(C(=O)Nc2cccc([C@]3(C)CCSC(N)=N3)c2)cn1 [Compound 70]
160 nM | CCCCOc1cnc(C(=O)Nc2cccc(C3(C)CCSC(N)=N3)c2)cn1 (centres unmarked) [Compound 71]
110 nM | CCCOc1cnc(C(=O)Nc2cccc([C@]3(C)CCSC(N)=N3)c2)cn1 [Compound 72]
180 nM | CSCCOc1cnc(C(=O)Nc2cccc([C@]3(C)CCSC(N)=N3)c2)cn1 [Compound 76]
70 nM | CCSc1cnc(C(=O)Nc2cccc([C@]3(C)CCSC(N)=N3)c2)cn1 [Compound 80]
190 nM | C=CCCOc1cnc(C(=O)Nc2cccc([C@]3(C)CCSC(N)=N3)c2)cn1 [Compound 86]
90 nM | CC(C)COc1cnc(C(=O)Nc2cccc([C@]3(C)CCSC(N)=N3)c2)cn1 [Compound 87]
80 nM | C[C@@]1(c2cccc(NC(=O)c3cnc(OCC(F)F)cn3)c2)CCSC(N)=N1 [Compound 92]
170 nM | C[C@@]1(c2cccc(NC(=O)c3cnc(OCC4CCO4)cn3)c2)CCSC(N)=N1 (some centres unmarked) [Compound 94]
80 nM | C[C@@]1(c2cccc(NC(=O)c3cnc(OCc4ccccc4)cn3)c2)CCSC(N)=N1 [Compound 101]
130 nM | C#CCCOc1cnc(C(=O)Nc2cccc([C@]3(C)CCSC(N)=N3)c2)cn1 [Compound 105]
120 nM | CC#CCCOc1cnc(C(=O)Nc2cccc([C@]3(C)CCSC(N)=N3)c2)cn1 [Compound 106]

same assay, conditions: Recombinant human BACE-1 7.4 nM, substrate peptide 18 nM, pH 5.0, 30° C., 3 hours; time-resolved fluorescence ratio 665/620; read-out: IC50 values (50% inhibitory concentration against the enzymatic activity)

SMILES | IC50
Cn1nc(C(F)(F)F)cc1C(=O)Nc1cccc([C@]2(C)CCSC(N)=N2)c1 [Compound 4] | ≤ 1000 nM
Cc1cc(C(=O)Nc2cccc([C@]3(C)CCSC(N)=N3)c2)[nH]n1 [Compound 5] | ≤ 1000 nM
COc1cc(C(=O)Nc2cccc([C@]3(C)CCSC(N)=N3)c2)n(C)n1 [Compound 18] | ≤ 1000 nM
Cc1cc(C(=O)Nc2ccc(F)c([C@]3(C)CCSC(N)=N3)c2)on1 [Compound 19] | ≤ 1000 nM
Cc1cc(C(=O)Nc2ccc(F)c([C@]3(C)CCSC(N)=N3)c2)no1 [Compound 20] | ≤ 1000 nM
CSc1ccc(NC(=O)c2cnc(C)cn2)cc1[C@]1(C)CCSC(N)=N1 [Compound 21] | ≤ 1000 nM
COc1cc(C(=O)Nc2ccc(F)c([C@]3(C)CCSC(N)=N3)c2)on1 [Compound 22] | ≤ 1000 nM
COc1ccc(NC(=O)c2cnc(C)cn2)cc1[C@]1(C)CCSC(N)=N1 [Compound 32] | ≤ 1000 nM
CSc1ccc(C(=O)Nc2cccc([C@]3(C)CCSC(N)=N3)c2)nc1 [Compound 33] | ≤ 1000 nM
CC#CCOc1ccc(C(=O)Nc2cccc([C@]3(C)CCSC(N)=N3)c2)nc1 [Compound 35] | ≤ 1000 nM
CCOc1nccnc1C(=O)Nc1ccc(F)c([C@]2(C)CCSC(N)=N2)c1 [Compound 43] | ≤ 1000 nM
COCCOc1nccnc1C(=O)Nc1ccc(F)c([C@]2(C)CCSC(N)=N2)c1 [Compound 45] | ≤ 1000 nM
COCCOc1cnc(C(=O)Nc2ccc(F)c([C@]3(C)CCSC(N)=N3)c2)c(N)n1 [Compound 46] | ≤ 1000 nM
C[C@@]1(c2cccc(NC(=O)c3nccnc3Cl)c2)CCSC(N)=N1 [Compound 59] | ≤ 1000 nM
C[C@@]1(c2cccc(NC(=O)C#Cc3ccccc3)c2)CCSC(N)=N1 [Compound 64] | ≤ 1000 nM
C[C@@]1(c2cccc(NC(=O)c3cnc(C(N)=O)cn3)c2)CCSC(N)=N1 [Compound 68] | ≤ 1000 nM
COCCOc1cnc(C(=O)Nc2ccc(F)c([C@]3(C)CCSC(N)=N3)c2)cn1 [Compound 75] | ≤ 1000 nM
CSc1cnc(C(=O)Nc2ccc(F)c([C@]3(C)CCSC(N)=N3)c2)cn1 [Compound 77] | ≤ 1000 nM
C[C@@]1(c2cc(NC(=O)c3cnc(Cl)cn3)ccc2F)CCSC(N)=N1 [Compound 78] | ≤ 1000 nM
C[C@@]1(c2cc(NC(=O)c3cnc(N=[N+]=[N-])cn3)ccc2F)CCSC(N)=N1 [Compound 79] | ≤ 1000 nM
C[C@@]1(c2cc(NC(=O)c3nccnc3Cl)ccc2F)CCSC(N)=N1 [Compound 84] | ≤ 1000 nM
COc1nccnc1C(=O)Nc1ccc(F)c([C@]2(C)CCSC(N)=N2)c1 [Compound 85] | ≤ 1000 nM
COCCOc1ccc(C(=O)Nc2cccc([C@]3(C)CCSC(N)=N3)c2)nc1 [Compound 95] | ≤ 1000 nM
COCCCOc1ccc(C(=O)Nc2cccc([C@]3(C)CCSC(N)=N3)c2)nc1 [Compound 96] | ≤ 1000 nM
C[C@@]1(c2cccc(NC(=O)c3ccc(OCCF)cn3)c2)CCSC(N)=N1 [Compound 97] | ≤ 1000 nM
CC(C)=CCOc1ccc(C(=O)Nc2cccc([C@]3(C)CCSC(N)=N3)c2)nc1 [Compound 98] | ≤ 1000 nM
CC#CCOc1cnc(C(=O)Nc2ccc(F)c([C@]3(C)CCSC(N)=N3)c2)cn1 [Compound 100] | ≤ 1000 nM
C[C@@]1(c2cccc(NC(=O)c3ccc(OCc4ccccc4)cn3)c2)CCSC(N)=N1 [Compound 102] | ≤ 1000 nM
CC#CCOc1cnc(C(=O)Nc2cccc(C3CCSC(N)=N3)c2)cn1 (centres unmarked) [Compound 107] | ≤ 1000 nM

Further lines, results first:

IC50 | SMILES
≤ 1000 nM | COc1cnc(C(=O)Nc2cccc([C@]3(C)CCSC(N)=N3)c2)cn1 [Compound 29]
≤ 1000 nM | C[C@@]1(c2cccc(NC(=O)c3cnc(Cl)cn3)c2)CCSC(N)=N1 [Compound 58]
≤ 1000 nM | CCc1cnc(C(=O)Nc2cccc([C@]3(C)CCSC(N)=N3)c2)cn1 [Compound 63]
≤ 1000 nM | CSc1cnc(C(=O)Nc2cccc([C@]3(C)CCSC(N)=N3)c2)cn1 [Compound 69]
≤ 1000 nM | CCOCCOc1cnc(C(=O)Nc2cccc([C@]3(C)CCSC(N)=N3)c2)cn1 [Compound 81]
≤ 1000 nM | C[C@@]1(c2cccc(NC(=O)c3cnc(OCC(F)(F)F)cn3)c2)CCSC(N)=N1 [Compound 82]
≤ 1000 nM | C/C=C/COc1cnc(C(=O)Nc2cccc([C@]3(C)CCSC(N)=N3)c2)cn1 [Compound 83]
≤ 1000 nM | C[C@@]1(c2cccc(NC(=O)c3cnc(OCCC(F)(F)F)cn3)c2)CCSC(N)=N1 [Compound 89]
≤ 1000 nM | COCCOCCOc1cnc(C(=O)Nc2cccc([C@]3(C)CCSC(N)=N3)c2)cn1 [Compound 90]
≤ 1000 nM | CC#CCOc1cnc(C(=O)Nc2cccc([C@]3(C)CCSC(N)=N3)c2)cn1 [Compound 91]
≤ 1000 nM | C#CCOc1cnc(C(=O)Nc2cccc([C@]3(C)CCSC(N)=N3)c2)cn1 [Compound 103]
